Laboratory results: patent US10294202B2, “Pyrrolidinones as herbicides” (FMC Corporation, priority 2013, dated 2019)

Experiments:
ryegrass, Italian = assay: Test C pre-/postemergence herbicide test; assay type: in vivo, Lolium multiflorum
How it was run: (§1)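 Pre- and postemergence greenhouse screen. Preemergence treatment went onto freshly planted seeds in loam–sand soil; postemergence treatment went onto plants 2 to 18 cm tall at the 1- to 4-leaf stage in sphagnum peat/vermiculite medium. Scoring at 13 to 15 days used a 0–100 control scale.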

waterhemp = assay: Test C pre-/postemergence herbicide test; assay type: in vivo, Amaranthus rudis
How it was run: as §1

oat, wild = assay: Test C pre-/postemergence herbicide test; assay type: in vivo, Avena fatua; details: Postemergence
How it was run: as §1

corn = assay: Test C pre-/postemergence herbicide test; assay type: in vivo, Zea mays
How it was run: as §1

soybean = assay: Test C pre-/postemergence herbicide test; assay type: in vivo, Glycine max
How it was run: as §1

johnsongrass = assay: Test C pre-/postemergence herbicide test; assay type: in vivo, Sorghum halepense
How it was run: as §1

galium = assay: Test C pre-/postemergence herbicide test; assay type: in vivo, Galium aparine
How it was run: as §1

blackgrass = assay: Test C pre-/postemergence herbicide test; assay type: in vivo, Alopecurus myosuroides
How it was run: as §1

ragweed = assay: Test C pre-/postemergence herbicide test; assay type: in vivo, Ambrosia elatior
How it was run: as §1

wheat = assay: Test A pre-/postemergence herbicide test; assay type: in vivo, Triticum aestivum; details: Postemergence
How it was run: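 Visual injury ratings, 0 = no effect, 100 = complete control, taken ~10 days after treatment against untreated greenhouse controls. Preemergence: directed soil spray onto seeded loam/sand pots. Postemergence: spray onto plants at one- to two-leaf stage, 2–10 cm tall.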

crabgrass, large = assay: Test C pre-/postemergence herbicide test; assay type: in vivo, Digitaria sanguinalis
How it was run: as §1

oilseed rape = assay: Test C pre-/postemergence herbicide test; assay type: in vivo, Brassica napus
How it was run: as §1

[1] = Postemergence, 31 g ai/ha, scale 0 to 100 (0 no effect, 100 complete control)
[2] = Postemergence, 62 g ai/ha, scale 0 (no effect) to 100 (complete control)
[3] = Postemergence, 125 g ai/ha, scale 0 to 100 (0 no effect, 100 complete control)
[4] = Postemergence, 250 g ai/ha, scale 0 to 100 (0 no effect, 100 complete control)
[5] = Preemergence, 31 g ai/ha, scale 0 to 100, 0 is no effect and 100 is complete control
[6] = Preemergence, 62 g ai/ha, scale 0 to 100 (0 no effect, 100 complete control)
[7] = Preemergence, 125 g ai/ha, scale 0 to 100 (0 no effect, 100 complete control)

**Q.** How did the “Plant response rating, Ryegrass, Italian” value (ryegrass, Italian; [1]) turn out when `O=C1NC[C@H](c2cccc(C(F)(F)F)c2)[C@H]1C(=O)Nc1ccccc1F` [Compound 204, (3R,4S)—N-(2-fluorophenyl)-2-oxo-4-[3-(trifluoromethyl)phenyl]-3-pyrrolidinecarboxamide] was run?
**A.** 0

**Q.** What about the “Plant response rating, Ryegrass, Italian” value (ryegrass, Italian; [2]) of the same compound?
**A.** 0

**Q.** What about the “Plant response rating, Ryegrass, Italian” value (ryegrass, Italian; [3]) of the same compound?
**A.** 0

**Q.** What about the “Plant response rating, Ryegrass, Italian” value (ryegrass, Italian; [4]) of the same compound?
**A.** 15

**Q.** And the “Ryegrass, Italian plant response rating” value (ryegrass, Italian; [5])?
**A.** 0

**Q.** And the “Ryegrass, Italian plant response rating” value (ryegrass, Italian; [6])?
**A.** 0

**Q.** And the “Plant response rating, Ryegrass, Italian” value (ryegrass, Italian; [7])?
**A.** 50

**Q.** What about the “Plant response rating (scale of 0 to 100), Ryegrass, Italian” value (ryegrass, Italian; Preemergence, 250 g ai/ha) of the same compound?
**A.** 30

**Q.** What about the “Plant response rating, Waterhemp” value (waterhemp; [1]) of the same compound?
**A.** 0

**Q.** What about the “Plant response rating, Waterhemp” value (waterhemp; [2]) of the same compound?
**A.** 0

**Q.** And the “Plant response rating, Waterhemp” value (waterhemp; [3])?
**A.** 0

**Q.** What about the “Plant response rating, Waterhemp” value (waterhemp; [4]) of the same compound?
**A.** 5

**Q.** And the “Waterhemp plant response rating” value (waterhemp; [5])?
**A.** 100

**Q.** What about the “Waterhemp plant response rating” value (waterhemp; [6]) of the same compound?
**A.** 75

**Q.** What about the “Plant response rating, Waterhemp” value (waterhemp; [7]) of the same compound?
**A.** 80

**Q.** And the “Plant response rating (scale of 0 to 100), Waterhemp” value (waterhemp; Preemergence, 250 g ai/ha)?
**A.** 90

**Q.** And the “Plant response rating, Oat, Wild” value (oat, wild; 31 g ai/ha, scale 0 to 100 (0 no effect, 100 complete control))?
**A.** 0

**Q.** And the “Plant response rating, Oat, Wild” value (oat, wild; 62 g ai/ha, scale 0 (no effect) to 100 (complete control))?
**A.** 0

**Q.** What about the “Plant response rating, Oat, Wild” value (oat, wild; 125 g ai/ha, scale 0 to 100 (0 no effect, 100 complete control)) of the same compound?
**A.** 0

**Q.** What about the “Plant response rating, Oat, Wild” value (oat, wild; 250 g ai/ha, scale 0 to 100 (0 no effect, 100 complete control)) of the same compound?
**A.** 5

**Q.** And the “Plant response rating, Corn” value (corn; [1])?
**A.** 0

**Q.** And the “Plant response rating, Corn” value (corn; [2])?
**A.** 0

**Q.** And the “Plant response rating, Corn” value (corn; [3])?
**A.** 0

**Q.** And the “Plant response rating, Corn” value (corn; [4])?
**A.** 40

**Q.** And the “Corn plant response rating” value (corn; [5])?
**A.** 45

**Q.** What about the “Corn plant response rating” value (corn; [6]) of the same compound?
**A.** 25

**Q.** And the “Plant response rating, Corn” value (corn; [7])?
**A.** 55

**Q.** And the “Plant response rating (scale of 0 to 100), Corn” value (corn; Preemergence, 250 g ai/ha)?
**A.** 75

**Q.** And the “Plant response rating, Soybean” value (soybean; [1])?
**A.** 0

**Q.** What about the “Plant response rating, Soybean” value (soybean; [2]) of the same compound?
**A.** 0

**Q.** And the “Plant response rating, Soybean” value (soybean; [3])?
**A.** 0

**Q.** What about the “Plant response rating, Soybean” value (soybean; [4]) of the same compound?
**A.** 5

**Q.** What about the “Soybean plant response rating” value (soybean; [5]) of the same compound?
**A.** 5

**Q.** What about the “Plant response rating, Soybean” value (soybean; [7]) of the same compound?
**A.** 5

**Q.** What about the “Plant response rating (scale of 0 to 100), Soybean” value (soybean; Preemergence, 250 g ai/ha) of the same compound?
**A.** 10

**Q.** And the “Plant response rating, Johnsongrass” value (johnsongrass; [1])?
**A.** 0

**Q.** What about the “Plant response rating, Johnsongrass” value (johnsongrass; [2]) of the same compound?
**A.** 0

**Q.** And the “Plant response rating, Johnsongrass” value (johnsongrass; [3])?
**A.** 0

**Q.** And the “Plant response rating, Johnsongrass” value (johnsongrass; [4])?
**A.** 0

**Q.** And the “Johnsongrass plant response rating” value (johnsongrass; [5])?
**A.** 10

**Q.** And the “Johnsongrass plant response rating” value (johnsongrass; [6])?
**A.** 40

**Q.** What about the “Plant response rating, Johnsongrass” value (johnsongrass; [7]) of the same compound?
**A.** 75

**Q.** What about the “Plant response rating (scale of 0 to 100), Johnsongrass” value (johnsongrass; Preemergence, 250 g ai/ha) of the same compound?
**A.** 85

**Q.** What about the “Plant response rating, Galium” value (galium; [1]) of the same compound?
**A.** 10

**Q.** What about the “Plant response rating, Galium” value (galium; [2]) of the same compound?
**A.** 45

**Q.** What about the “Plant response rating, Galium” value (galium; [3]) of the same compound?
**A.** 60

**Q.** And the “Plant response rating, Galium” value (galium; [4])?
**A.** 60

**Q.** And the “Galium plant response rating” value (galium; [6])?
**A.** 90

**Q.** And the “Plant response rating, Galium” value (galium; [7])?
**A.** 90

**Q.** And the “Plant response rating (scale of 0 to 100), Galium” value (galium; Preemergence, 250 g ai/ha)?
**A.** 90

**Q.** What about the “Plant response rating, Blackgrass” value (blackgrass; [1]) of the same compound?
**A.** 0

**Q.** And the “Plant response rating, Blackgrass” value (blackgrass; [2])?
**A.** 0

**Q.** And the “Plant response rating, Blackgrass” value (blackgrass; [3])?
**A.** 0

**Q.** What about the “Plant response rating, Blackgrass” value (blackgrass; [4]) of the same compound?
**A.** 50

**Q.** What about the “Blackgrass plant response rating” value (blackgrass; [5]) of the same compound?
**A.** 90

**Q.** And the “Plant response rating, Blackgrass” value (blackgrass; Preemergence, 62 g ai/ha, scale 0 to 100)?
**A.** 90

**Q.** And the “Plant response rating, Blackgrass” value (blackgrass; [7])?
**A.** 90

**Q.** And the “Plant response rating (scale of 0 to 100), Blackgrass” value (blackgrass; Preemergence, 250 g ai/ha)?
**A.** 90

**Q.** And the “Plant response rating, Ragweed” value (ragweed; [1])?
**A.** 0

**Q.** And the “Plant response rating, Ragweed” value (ragweed; [2])?
**A.** 0

**Q.** What about the “Plant response rating, Ragweed” value (ragweed; [3]) of the same compound?
**A.** 0

**Q.** What about the “Plant response rating, Ragweed” value (ragweed; [4]) of the same compound?
**A.** 0

**Q.** What about the “Ragweed plant response rating” value (ragweed; [5]) of the same compound?
**A.** 30

**Q.** What about the “Ragweed plant response rating” value (ragweed; [6]) of the same compound?
**A.** 30

**Q.** And the “Plant response rating, Ragweed” value (ragweed; [7])?
**A.** 100

**Q.** And the “Plant response rating (scale of 0 to 100), Ragweed” value (ragweed; Preemergence, 250 g ai/ha)?
**A.** 65

**Q.** What about the “Wheat plant response rating (0 to 100 scale, 0 is no effect, 100 is complete control)” value (wheat; 500 g ai/ha) of the same compound?
**A.** 80

**Q.** And the plant injury at 125 g/ha (wheat; Triticum aestivum, post-emergence, 240 h, 125 g ai/ha, 0 to 100 scale, 0 is no effect, 100 is complete control, read-out: Plant response rating, Wheat)?
**A.** 60%

**Q.** And the “Plant response rating, Crabgrass, Large” value (crabgrass, large; [1])?
**A.** 0

**Q.** What about the “Plant response rating, Crabgrass, Large” value (crabgrass, large; [2]) of the same compound?
**A.** 50

**Q.** What about the “Plant response rating, Crabgrass, Large” value (crabgrass, large; [3]) of the same compound?
**A.** 70

**Q.** And the “Plant response rating, Crabgrass, Large” value (crabgrass, large; [4])?
**A.** 80

**Q.** And the “Crabgrass, Large plant response rating” value (crabgrass, large; [5])?
**A.** 90

**Q.** And the “Crabgrass, Large plant response rating” value (crabgrass, large; [6])?
**A.** 90

**Q.** What about the “Plant response rating, Crabgrass, Large” value (crabgrass, large; [7]) of the same compound?
**A.** 100

**Q.** What about the “Plant response rating (scale of 0 to 100), Crabgrass, Large” value (crabgrass, large; Preemergence, 250 g ai/ha) of the same compound?
**A.** 95

**Q.** What about the “Plant response rating, Oilseed Rape” value (oilseed rape; [1]) of the same compound?
**A.** 0

**Q.** What about the “Plant response rating, Oilseed Rape” value (oilseed rape; [2]) of the same compound?
**A.** 0

**Q.** What about the “Plant response rating, Oilseed Rape” value (oilseed rape; [3]) of the same compound?
**A.** 0

**Q.** What about the “Plant response rating, Oilseed Rape” value (oilseed rape; [4]) of the same compound?
**A.** 45

**Q.** And the “Oilseed Rape plant response rating” value (oilseed rape; [5])?
**A.** 0

**Q.** And the “Oilseed Rape plant response rating” value (oilseed rape; [6])?
**A.** 0

**Q.** And the “Plant response rating, Oilseed Rape” value (oilseed rape; [7])?
**A.** 0

**Q.** And the “Plant response rating (scale of 0 to 100), Oilseed Rape” value (oilseed rape; Preemergence, 250 g ai/ha)?
**A.** 60
